Data reported in PMC6944710, “In vitro and in silico insights into tyrosinase inhibitors with (E)-benzylidene-1-indanone derivatives” (Computational and Structural Biotechnology Journal, 2019).
“Also recorded” adds a separate entry of the source. Like-named read-outs stand apart in the source and are kept apart here.

What was measured:
mushroom tyrosinase [1] = experiment: Mushroom tyrosinase inhibitory assay (L-tyrosine or L-DOPA as substrate); assay type: biochemical, Agaricus bisporus; conditions: for IC50: mean ± SEM of triplicate experiments; for Tyrosinase inhibitory activity (in words) / Inhibitory effect at the concentration of 200 µM: mushroom tyrosinase; for Tyrosinase inhibitory activity (in words): L-tyrosine and L-DOPA
Protocol: Tyrosinase inhibitory activity assay was performed using mushroom tyrosinase as described previously, with minor modification, [36]. […] […] The reaction mixtures were incubated at 37 °C for 30 min. After that, the amount of dopachrome produced in each well was measured by spectrophotometric analysis at 492 nm (OD492) using a microplate reader.

mushroom tyrosinase [2] = experiment: Enzyme kinetic analysis with tyrosinase (Lineweaver-Burk and Dixon plots); assay type: biochemical, Agaricus bisporus; conditions: L-DOPA as substrate
Protocol: To determine the kinetic mechanisms of inhibition, two complimentary kinetics methods were used: Lineweaver–Burk and Dixon plots, [38], [39]. Using Lineweaver-Burk plots (double reciprocal plots), the inhibition type of BID3 was determined using various concentrations of L-DOPA (0.125, 0.25, 0.5, and 1 mM), as substrates, in the absence and presence of various concentrations of BID3 (1, 2, and 4 μM). A Dixon plot (single reciprocal plots) for tyrosinase inhibition was obtained in the presence of various concentrations of L-DOPA (0.125, 0.25, 0.5, and 1 mM). The concentrations of BID3 were 1, 2, and 4 µM. The enzymatic procedures consisted of the previously described tyrosinase assay methods. The inhibition constant (Ki) was determined from the interpretation of Dixon plots.

[3] = target: T1, cellular tyrosinase of B16F10 cells (Mus musculus, UniProt P11344); experiment: Cellular tyrosinase activity in α-MSH and IBMX-stimulated cells; assay type: cell-based, Murine; conditions: BID3 1, 5, and 20 µM (methods: 1, 5, and 10 µM), 48 h
T1 construct: endogenous in cells; host or cells: B16F10 melanoma cells
T1 sequence (P11344 19-533): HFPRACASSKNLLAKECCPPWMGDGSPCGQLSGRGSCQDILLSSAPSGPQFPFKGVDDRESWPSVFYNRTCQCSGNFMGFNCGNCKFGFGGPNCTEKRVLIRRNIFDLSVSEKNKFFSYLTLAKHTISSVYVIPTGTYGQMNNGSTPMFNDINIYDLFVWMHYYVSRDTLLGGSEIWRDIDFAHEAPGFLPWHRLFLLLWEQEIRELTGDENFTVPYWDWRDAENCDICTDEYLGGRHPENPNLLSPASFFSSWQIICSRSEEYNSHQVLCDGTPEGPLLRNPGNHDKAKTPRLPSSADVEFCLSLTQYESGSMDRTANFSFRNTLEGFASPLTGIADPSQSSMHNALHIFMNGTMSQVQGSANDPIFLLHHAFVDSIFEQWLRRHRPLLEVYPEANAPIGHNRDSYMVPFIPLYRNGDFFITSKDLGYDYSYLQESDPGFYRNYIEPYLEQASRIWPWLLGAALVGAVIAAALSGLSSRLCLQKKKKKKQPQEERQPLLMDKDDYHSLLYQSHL
Protocol: Cellular tyrosinase activity was assessed as described previously, with slight modifications, [45]. Briefly, 2 × 10^5/cells were plated in 6-well dishes and incubated overnight. […] After being rinsed twice with PBS, the cells were lysed with 100 µL lysis solution containing 50 mM phosphate buffer (pH 6.5), 0.1 mM phenylmethylsulfonylfluoride (PMSF), and 1% Triton X-100 and frozen at −80 °C for 30 min. Lysates were thawed and centrifuged at 12,000 rpm for 30 min at 4 °C. […] After incubation at 37 °C for 30 min, the optical density at 492 nm was measured using an ELISA reader (TECAN, Salzburg, Austria). The protein concentration was determined using BCA protein assay reagent using […] (Thermo Scientific, Rockford, IL, USA).

B16F10 melanoma cells [4] = experiment: Cell viability assay (EZ-Cytox); assay type: cell-based, Murine; conditions: 1–20 µM, 24 h and 48 h
Protocol: Murine melanoma B16F10 cells were purchased from the Korean Cell Line Bank (KCLB, Seoul, Korea) and cultured in DMEM supplemented with 10% FBS and 1% streptomycin, and then incubated at 37 °C, humidified with 5% atmospheric CO2. Cell viability analyses were performed as previously described. Briefly, cells seeded at a density of 1 × 10^4 cells/well in a 96-well plate for 24 h. On the following day, the cells were exposed to different concentrations of BID3 and incubated for 24 or 48 h, respectively. Then, 10 µL EZ-Cytox solution was added to each well and the cells were incubated for 2–4 h. Absorbance was determined using ELISA at a wavelength of 450 nm. Each assay was performed in triplicate.

B16F10 melanoma cells [5] = experiment: Melanin contents assay in α-MSH and IBMX-stimulated cells; assay type: cell-based, Murine; conditions: BID3 1, 5, and 20 µM (methods: 1, 5, and 10 µM), 48 h
Protocol: Melanin content was determined as described previously. B16F10 melanoma cells (2 × 10^5 cells/well) were seeded in 6-well culture plates. […] After washed twice with PBS, the cells were detached by incubation in Trypsin/EDTA, and the pellets were dissolved in 100 µL of 1 N NaOH, and then incubated at 60 °C for 1 h and mixed to solubilize the melanin. The melanin contents were determined by measuring absorbance at 405 nm by using the ELISA reader (TECAN, Sunrise, Austria). The melanin content was calculated using the following equation: (Δsample/Δcontrol) × 100%. All determinations were performed in triplicate.

tyrosinase = conditions: cited from earlier work
[6] = L-DOPA substrate, read-out: IC50 (μM), L-DOPA as substrate (diphenolase activity)
[7] = L-tyrosine substrate, read-out: IC50 (μM), L-tyrosine as substrate (monophenolase activity)

| Compound | IC50 (mushroom tyrosinase [1]; [6]) | IC50 (mushroom tyrosinase [1]; [7]) | melting point | also measured |
| --- | --- | --- | --- | --- |
| COc1cc(/C=C2\Cc3ccccc3C2=O)cc(OC)c1O [BID11, (E)-2-(4-Hydroxy-3,5-dimethoxybenzylidene)-2,3-dihydro-1H-inden-1-one] | > 200 µM | 75.2 ± 2.24 µM | 190.2 to 191.1 °C | Tyrosinase inhibitory activity (in words) (mushroom tyrosinase [1]): moderate tyrosinase inhibitory activity |
| O=C1/C(=C/c2ccc(O)cc2O)Cc2ccccc21 [BID3, (E)-2-(2,4-Dihydroxybenzylidene)-2,3-dihydro-1H-inden-1-one] | 1.39 ± 4e-05 µM | 0.034 ± 0.00224 µM |  | Ki (mushroom tyrosinase [2]; Dixon plot): 2400 nM; Type of tyrosinase inhibition (mushroom tyrosinase [2]; Lineweaver-Burk and Dixon plots): mixed-type inhibition; also recorded: mixed-type inhibitor; Cellular tyrosinase activity [3]: inhibited; also recorded: concentration dependently decrease; Cytotoxic effect on B16F10 cells (B16F10 melanoma cells [4]): no significant cytotoxic effect; also recorded: without inducing cytotoxicity; Melanin contents (B16F10 melanoma cells [5]): decreased; also recorded: concentration dependently decrease |
| COc1ccc(/C=C2\Cc3ccccc3C2=O)cc1O [BID6, (E)-2-(3-Hydroxy-4-methoxybenzylidene)-2,3-dihydro-1H-inden-1-one] | 50.8 ± 2.16 µM | 5 ± 0.91 µM |  |  |
| O=C(O)/C=C/c1ccccc1 [Cinnamic acid, trans-cinnamic acid, reference compound] | > 200 µM | > 200 µM |  | Inhibitory effect at the concentration of 200 µM (mushroom tyrosinase [1]): no inhibitory effect; Reported type of tyrosinase inhibition (tyrosinase): mixed-mode tyrosinase inhibitor |
| COc1ccc(/C=C2\Cc3ccccc3C2=O)c(OC)c1 [BID9, (E)-2-(2,4-Dimethoxybenzylidene)-2,3-dihydro-1H-inden-1-one] | 96.9 ± 9.78 µM | > 200 µM |  |  |
| O=c1cc(CO)occ1O [Kojic acid, kojic acid] |  |  |  | Reported type of tyrosinase inhibition (tyrosinase): competitive type inhibitor |
| COc1cc(/C=C2\Cc3ccccc3C2=O)ccc1O [BID4, (E)-2-(4-Hydroxy-3-methoxybenzylidene)-2,3-dihydro-1H-inden-1-one] | > 200 µM | 73.5 ± 5.78 µM |  | Tyrosinase inhibitory activity (in words) (mushroom tyrosinase [1]): moderate tyrosinase inhibitory activity |
| O=C1/C(=C/c2ccc(O)cc2)Cc2ccccc21 [BID1, (E)-2-(4-Hydroxybenzylidene)-2,3-dihydro-1H-inden-1-one] | 130 ± 5.39 µM | 39.7 ± 3.71 µM |  |  |
| COc1ccc(/C=C2\Cc3ccccc3C2=O)cc1 [BID7, (E)-2-(4-Methoxybenzylidene)-2,3-dihydro-1H-inden-1-one] | > 200 µM | > 200 µM |  |  |
| O=C(O)c1ccccc1C(=O)O [Phthalic acid, phthalic acid, reference compound] | > 200 µM | > 200 µM |  | Inhibitory effect at the concentration of 200 µM (mushroom tyrosinase [1]): no inhibitory effect; Reported type of tyrosinase inhibition (tyrosinase): mixed-mode tyrosinase inhibitor |
| CCOc1cc(/C=C2\Cc3ccccc3C2=O)ccc1O [BID5, (E)-2-(3-Ethoxy-4-hydroxybenzylidene)-2,3-dihydro-1H-inden-1-one] | > 200 µM | > 200 µM | 135.8 to 136.4 °C |  |
| O=C1/C(=C/c2ccc(O)c(Br)c2)Cc2ccccc21 [BID12, (E)-2-(3-Bromo-4-hydroxybenzylidene)-2,3-dihydro-1H-inden-1-one] | > 200 µM | > 200 µM | 225 to 226.2 °C |  |
| COc1cc(/C=C2\Cc3ccccc3C2=O)cc(OC)c1OC [BID10, (E)-2-(3,4,5-Trimethoxybenzylidene)-2,3-dihydro-1H-inden-1-one] | > 200 µM | > 200 µM | 164.4 to 165.2 °C |  |
| O=C1/C(=C/c2ccc(O)c(O)c2)Cc2ccccc21 [BID2, (E)-2-(3,4-Dihydroxybenzylidene)-2,3-dihydro-1H-inden-1-one] | 52.9 ± 2.62 µM | 41.3 ± 3.03 µM |  |  |
| COc1ccc(/C=C2\Cc3ccccc3C2=O)cc1OC [BID8, (E)-2-(3,4-Dimethoxybenzylidene)-2,3-dihydro-1H-inden-1-one] | > 200 µM | > 200 µM | 176.5 to 177.2 °C |  |
| O=C1/C(=C/c2cc(Br)c(O)c(Br)c2)Cc2ccccc21 [BID13, (E)-2-(3,5-Dibromo-4-hydroxybenzylidene)-2,3-dihydro-1H-inden-1-one] | 75.3 ± 7.94 µM | > 200 µM | 267.4 to 268.1 °C |  |
